The values that follow are results of earlier work, collected in patent publication US12648892B2, “Emergency eye wash” (Lebrun Labs LLC, priority 2024, dated 2026).

In one series the test system is eye. Particulars: eye damage classification; cited from earlier work. Further: key: GHS Category 1 (Chemicals that cause extreme and irreversible damage to the eye).
The conditions of series [1]: most extreme pH value found for each chemical; includes diluted chemicals; cited from earlier work.

Bounds are passed on as bounds.

For the compound `CSCCC(NC(C)=O)C(=O)O` (racemic) [compound 88], the “in vivo GHS” value in the series on eye is listed as 1. Turning to `O=C1C2CC=CCC2C(=O)N1SC(Cl)(Cl)Cl` (stereo not shown) [compound 1], in the series on eye, the “in vivo GHS” value is 1.

For `CC(C)(C)CC(C)(C)c1ccc(O)cc1` [compound 2], the “in vivo GHS” value in the series on eye was 1.

With `CCN(CC)CCCC(C)Nc1c2ccc(Cl)cc2nc2ccc(OC)cc12` (stereo not shown) [compound 3], the “in vivo GHS” value with eye is on record as 1. `O=C([O-])C(=O)[O-].[Na+].[Na+]` [compound 4]: the “in vivo GHS” value in the series on eye is given as 1. For the compound `CCCCCCCCCCCCCCCC[N+](C)(C)C.[Cl-]` [compound 5], the “in vivo GHS” value with eye is 1. Turning to `O=C(O)CO` [compound 6], the “in vivo GHS” value with eye is given as 1. Regarding `CCCCCCCCCCCCOS(=O)(=O)[O-].[Na+]` [compound 7], the “in vivo GHS” value in the series on eye is 1. As for `CCCCCCCCCCCC(=O)O` [compound 8], the “in vivo GHS” value in the series with eye is listed as 1. As for `CCC[CH2][Sn]([CH2]CCC)([CH2]CCC)[O][Sn]([CH2]CCC)([CH2]CCC)[CH2]CCC` [compound 9], the “in vivo GHS” value in the series on eye is listed as 1. On to `CC(=O)O` [compound 11], for which the “in vivo GHS” value in the series on eye was 1.

Take `O=C([O-])c1ccccc1O.[Na+]` [compound 13]: in the series on eye, the “in vivo GHS” value is 1. Consider `CCCCO` [compound 15], for which, in the series on eye, the “in vivo GHS” value is given as 1. For the compound `OCc1ccccc1` [compound 16], in the series with eye, the “in vivo GHS” value was 1. Turning to `CC(O)C(=O)O` (stereo not shown) [compound 17], the “in vivo GHS” value with eye is 1. In the case of `Nc1cccc(N)c1` [compound 18], the “in vivo GHS” value in the series on eye is given as 1.

As for `c1ccncc1` [compound 20], the “in vivo GHS” value in the series with eye is recorded as 1.

For the compound `CC(CN1c2ccccc2Sc2ccccc21)N(C)C.Cl` (stereo not shown) [compound 21], the “in vivo GHS” value in the series with eye is 1. As to `CCCCCCCCCCCC[N+](C)(C)CCOc1ccccc1.[Br-]` [compound 26], the “in vivo GHS” value with eye is listed as 1. Turning to `CCCCCCCCCCCCCCCC[N+](C)(C)C.[Br-]` [compound 28], the “in vivo GHS” value with eye is recorded as 1. On to `O=C(O)c1ccccc1` [compound 32], for which, in the series on eye, the “in vivo GHS” value is listed as 1. As to `O=C([O-])c1c(Cl)c(Cl)c(Cl)c(Cl)c1-c1c2cc(Br)c(=O)c(Br)c-2oc2c(Br)c([O-])c(Br)cc12.[Na+].[Na+]` [compound 34], in the series with eye, the “in vivo GHS” value is on record as 1.

As for `CCCCCCCCCCCCCCCC[n+]1ccccc1.O.[Cl-]` [compound 35], the “in vivo GHS” value in the series with eye is listed as 1.

For `CC(C=O)Cc1ccc(C(C)(C)C)cc1` (stereo not shown) [compound 38], the “in vivo GHS” value in the series on eye was 1. For `CCCCCCCCCCCCCCCCCC[N+](C)(C)CCCCCCCCCCCCCCCCCC` [compound 39], the pH in series [1] is reported as 5.5. Moreover, the “in vivo GHS” value in the series on eye is on record as 1.

Regarding `C=CC(=O)OCCOCCOCCOCCOC(=O)C=C` [compound 42], the pH in series [1] is given as 5.2. The “in vivo GHS” value in the series on eye is 1. Consider `O=C(O)Cc1cccc2ccccc12` [compound 43], for which the pH in series [1] is on record as 5.0. The “in vivo GHS” value in the series with eye is recorded as 1.

Consider `CCCCOCCO` [compound 46], for which the pH in series [1] is 7.0. Also, in the series on eye, the “in vivo GHS” value was 1.

Regarding `OC1CCCCC1` [compound 47], the pH in series [1] is 6.5. Also, in the series on eye, the “in vivo GHS” value is 1. With `C1CCOC1` [compound 48], the pH in series [1] was 8.0. Also, the “in vivo GHS” value in the series on eye is listed as 1. For the compound `O=C(O)CCC(=O)C(=O)O` [compound 49], in series [1], the pH is 1.5. Further, the “in vivo GHS” value in the series with eye is reported as 1.

`Nc1ccc(F)cc1` [compound 50]: the pH in series [1] is 7.4. Also, in the series on eye, the “in vivo GHS” value is recorded as 1. As to `CC(C)(O)C(=O)O` [compound 51], the pH in series [1] is 1.0. For the same compound, in the series on eye, the “in vivo GHS” value is 1.

Take `CCO[Si](CCCN)(OCC)OCC` [compound 52]: the pH in series [1] is 11.0. The “in vivo GHS” value with eye is reported as 1. With `CCN(CC)CCO` [compound 53], the pH in series [1] was 11.5. In the series on eye, the “in vivo GHS” value was 1. Take `c1c[nH]cn1` [compound 54]: the pH in series [1] is 10.5. Moreover, in the series on eye, the “in vivo GHS” value was 1. In the case of `CCCCCCCCN` [compound 55], in series [1], the pH is given as 11.8. Also, the “in vivo GHS” value in the series on eye is listed as 1. `[Na+].[OH-]` [compound 56]: the pH in series [1] is recorded as 14.0. For the same compound, the “in vivo GHS” value in the series with eye is 1. For the compound `O=C(O)C(Cl)(Cl)Cl` [compound 57], in series [1], the pH is recorded as less than 1.0. In the series with eye, the “in vivo GHS” value is recorded as 1. Consider `CCCCC(CC)COC(=O)CC(C(=O)OCC(CC)CCCC)S(=O)(=O)[O-].[Na+]` (stereo not shown) [compound 58], for which the pH in series [1] is listed as 6.5. Further, the “in vivo GHS” value in the series with eye was 1. For `CCCCCCCCCCCC(=O)[O-].[K+]` [compound 59], in series [1], the pH is recorded as 10.5. Further, the “in vivo GHS” value in the series with eye is reported as 1. For the compound `CCCCCCCCCCCCCCCCCC[N+](C)(C)C` [compound 60], the pH in series [1] is recorded as 4.2. Also, in the series on eye, the “in vivo GHS” value is on record as 1.

Regarding `CCCCCCCCCCCC[N+](C)(C)[O-]` [compound 62], the pH in series [1] was 9.0. Further, in the series with eye, the “in vivo GHS” value is 1.

On to `O=C(O)c1ccc(O)cc1O` [compound 64], for which the pH in series [1] is reported as 3.0. In addition, the “in vivo GHS” value with eye was 1. In the case of `O=S(=O)([O-])O.[Na+]` [compound 65], in series [1], the pH was less than 1.0. For the same compound, the “in vivo GHS” value in the series on eye is recorded as 1. `CCCCCCCC[N+](CCCCCCCC)(CCCCCCCC)CCCCCCCC.[Br-]` [compound 66]: in series [1], the pH is 3.9. In addition, in the series with eye, the “in vivo GHS” value is 1. For the compound `CC(C)(O)CCC(C)(C)O` [compound 68], the “in vivo GHS” value in the series on eye is recorded as 1. As to `OCCCCCCCCCl` [compound 69], the “in vivo GHS” value with eye was 1. For the compound `CCCCCCCCCCCC[N+](C)(C)CC(O)CS(=O)(=O)[O-]` (stereo not shown) [compound 71], the “in vivo GHS” value in the series on eye is given as 1.

`C#CC(C)(O)CC` (stereo not shown) [compound 76]: in the series with eye, the “in vivo GHS” value is given as 1.

As to `C=CC(=O)OCCOC` [compound 79], in the series with eye, the “in vivo GHS” value was 1. For `O=S(=O)(Cl)c1ccccc1` [compound 80], the “in vivo GHS” value in the series on eye is recorded as 1.

As for `C=CC(=O)OCCO` [compound 81], the “in vivo GHS” value with eye is given as 1.

With `Oc1ccc(Cl)cc1Cc1ccccc1` [compound 82], the “in vivo GHS” value in the series with eye is 1. On to `CCOC(=O)C(C)(C)O` [compound 83], for which the “in vivo GHS” value in the series on eye is 1. In the case of `CCCCCCCCCCCCCCCC[n+]1ccccc1.[Br-]` [compound 84], the “in vivo GHS” value in the series with eye is given as 1. As for `O=C(OC(C(=O)O)C(OC(=O)c1ccccc1)C(=O)O)c1ccccc1` (stereo not shown) [compound 87], the “in vivo GHS” value with eye is 1. Consider `O=c1[nH]sc2ccccc12` [compound 89], for which, in the series with eye, the “in vivo GHS” value is 1. For `O=S1(=O)OC(c2cc(Br)c(O)c(Br)c2)(c2cc(Br)c(O)c(Br)c2)c2c(Br)c(Br)c(Br)c(Br)c21` [compound 90], in the series with eye, the “in vivo GHS” value was 1. In the case of `C[Si](C)(CCCN)O[Si](C)(C)CCCN` [compound 91], the “in vivo GHS” value in the series with eye was 1.

For `Cc1ccccc1NC(=N)NC(=N)N` [compound 92], the “in vivo GHS” value in the series on eye is 1. For the compound `COC(=O)CS` [compound 93], in the series on eye, the “in vivo GHS” value was 1. As for `CCC(C)(C)C(=O)O` [compound 94], the “in vivo GHS” value in the series with eye is 1.

As to `CO[Si](CCCNCCN)(OC)OC` [compound 95], the “in vivo GHS” value with eye is recorded as 1. With `CC(C)(C)c1ccc(O)c(O)c1` [compound 96], the “in vivo GHS” value in the series with eye is reported as 1. On to `Oc1ccc2ccc(O)cc2c1` [compound 99], for which the “in vivo GHS” value in the series on eye is listed as 1. As to `Cc1c(O)cccc1O` [compound 100], the “in vivo GHS” value with eye was 1. Consider `CCCOC(=O)C(C)O` (stereo not shown) [compound 101], for which the “in vivo GHS” value with eye is reported as 1. Regarding `[Na+].c1nc[n-]n1` [compound 105], the “in vivo GHS” value in the series with eye is given as 1. As for `N#CSc1ccc(N)c([N+](=O)[O-])c1` [compound 106], the “in vivo GHS” value in the series on eye is on record as 1. Consider `O=C=Nc1ccc(Cl)c(Cl)c1` [compound 107], for which the “in vivo GHS” value in the series on eye was 1. As for `CCN(CC)CCC#N` [compound 108], the “in vivo GHS” value in the series on eye is 1.
